The source of these data is patent publication US12490743B2, “Method for treatment of crops” (Wobelea PTY LTD, priority 2019, dated 2025).

The nature of data set [1]: pH of products dissolved in tank water. Type of data set: physicochemical. The following applies: 0.8%; for pH after active added in unamended tank water: tank water pH 6.25. The procedure: The water used throughout the projects is rainwater held in the dark in a plastic tank with stable pH value of 6.25. Controls were set up by replacing actives with tank water only.
Products were dissolved in tank water before application to the agar plants. Tank water (pH 6.25) was adjusted to the respective pH levels prior to adding the actives to determine the change in pH caused by the actives.
Tank water was adjusted to pH 4.0, 5.5, and 7.0 before adding sodium benzoate, sodium metabisulphite and WOB NP1, each at 0.8%.
Tank water was adjusted to pH 7.0, 7.5 and 8.4 before adding sodium benzoate, sodium sulphite and WOB PH1, each at 0.8%.

Data set [2] has as its system Botrytis cinerea. The experiment in a line: Preventative activity: pathogen plugs laid on agar containing product. Conditions: Example 5; unadjusted water pH; 0.8%; WOB as liquid formulation; 24 hrs. Type of data set: cell-based. How it is done:
(§1) The fungal and bacterial pathogens Erwinia carotovora (bacterial) and Botrytis cinerea (fungal) were cultured on to Nutrient Agar (NA) and potato dextrose agar (PDA), respectively and incubated at ambient temperature until sporulating or well grown.
(§2) Multiple plates of PDA were inoculated with B. cinerea and allowed to sporulate. Multiple plates of NA were inoculated with E. carotovora and allowed to grow into a thick lawn.
(§3) Plates of agar containing each product (Na metabisulphite, Na Benzoate, WOB NP1 of Example 3) and (Na sulphite, Na Benzoate, WOB PH1) at concentrations equivalent to 0.8% concentration were made up and poured into sterile disposal Petri dishes. Three replicates for each product and pH (4.0 and 7.0) were used.
(§4) Sterile agar discs covered with bacterial cells or fungal hyphae and spores were cut from respective plates of B. cinerea and E. carotovora. Three discs were each laid culture surface down onto the amended agar surface, incubated at ambient temperatures (14-25° C.) and observed for inhibition zones at 24 hours, 48 hours and 7 days.
(§5) Water was used unmodified and agars were made up of the 6 products using them at the pH resulting after dissolving to 0.8% concertation. Curative and preventative plates were prepared as described for Example 4 except that pHs were as dissolved (tank water not adjusted prior to dissolving/diluting product).
(§6) The curative and preventative experiments were repeated according to the method of Example 5 using the liquid WOB NP1 and WOB PH 1 formulations and the solid actives sodium metabisulphite, sodium benzoate and sodium sulphite.
(§7) The liquid WOB formulations were divided into 3 aliquots; one was used immediately—time zero; one stored at ambient temperate (15-27° C.) for one week and experiments repeated; one kept refrigerated (5° C.) for one week and experiments repeated.

Data set [3] deals with Erwinia carotovora. The data set is described as above. Type of data set: cell-based. The following applies: Example 5; unadjusted water pH; 0.8%; WOB as liquid formulation; 24 hrs. The procedure:
as §1, §2, §3, §4, §5, §6, §7

In data set [4] the test system is Botrytis cinerea. The experiment in a line: Curative activity: product-soaked discs laid on pathogen lawn on agar. Type of data set: cell-based. Conditions: 0.8%, 24 hrs. The procedure: as §1, §2
(§8) Plates of PDA and NA were inoculated with fungal spores and bacterial cells, respectively, and allowed to grow into a lawn covering the agar surfaces. Three replicates were used for each product and each pH. Following the results from the preliminary tests, pH 4.0 and 7.0 were selected for all further product pH tests.
(§9) When the lawns were well grown and sporulating in the case of the fungal pathogen, five discs soaked with 200 uL of each product (sodium metabisulphite, sodium benzoate, WOB NP1, sodium sulphite, and WOB PH1) at appropriate pH levels were laid onto the sporulating surface or cell lawn surface for the fungal pathogen and the bacterial pathogen, respectively.
(§10) The plates were incubated at ambient temperature (14-25° C.). Inhibition zones were measured at 24 hours, 48 hours and 7 days.
as §5, §6, §7

Data set [5] relates to Erwinia carotovora. Described as above. Type of data set: cell-based. The following applies: 0.8%, 24 hrs. How it is done: as §1, §2, §8, §9, §10, §5, §6, §7
Setting [6] is: tank water adjusted to pH 4.0 before product added.
Setting [7] is: tank water adjusted to pH 5.5 before product added.
[8] abbreviates: tank water adjusted to pH 7.0 before product added.
[9] abbreviates: tank water adjusted to pH 7.5 before product added.
The mark [10] stands for this setting: tank water adjusted to pH 8.4 before product added.
Where [11] appears, read: Example 5, unadjusted water pH, WOB as liquid formulation.

Where “and” joins values, the source holds several entries; their conditions need not be identical. Identical values can stand only once.

Regarding `O=C([O-])c1ccccc1.[Na+]` [Na Benzoate, sodium benzoate], the “pH of water after product added” value in data set [1] (setting [6]) was 6.15; in data set [1] (setting [7]) it was 6.34; in data set [1] (setting [8]), 6.60 and 6.74; in data set [1] (setting [9]) it was 6.80; in data set [1] (setting [10]) it was 6.85. Also, the “pH after active added in unamended tank water” value (from here on “pH after active added”) in data set [1] came out at 4.78. For the same compound, the “Preventative activity on the growth of B. cinerea” value in the data set with Botrytis cinerea [2] is given as “No obvious effect”. In addition, in the data set with Erwinia carotovora [3], the “Preventative activity on the growth of E. carotovora” value was “No obvious effect”. For the same compound, the “Curative activity on the growth of B. cinerea” value is recorded as “No obvious effect” with Botrytis cinerea [4] (Example 4, pH 4.0); “No effect” in the data set with Botrytis cinerea [4] (Example 4, pH 7.0); “No obvious effect” in the data set on Botrytis cinerea [4] (setting [11]). Also, in the data set with Erwinia carotovora [5] (Example 4, pH 7.0), the “Curative activity on the growth of E. carotovora” value is given as “No effect”.

Turning to `O=S([O-])[O-].[Na+].[Na+]` [Na sulphite, sodium sulphite], the “pH of water after product added” value in data set [1] (setting [8]) turned out to be 6.78; in data set [1] (setting [9]), 6.78; in data set [1] (setting [10]), 6.99. The “pH after active added” value in data set [1] was 5.24. Also, the “Curative activity on the growth of B. cinerea” value with Botrytis cinerea [4] (Example 4, pH 7.0) is “No effect”.

`O=S([O-])S(=O)(=O)[O-].[Na+].[Na+]` [Na metabisulphite, sodium metabisulphite]: the “pH of water after product added” value in data set [1] (setting [6]) was 3.75; in data set [1] (setting [7]) it was 5.52; in data set [1] (setting [8]), 6.14. Also, the “pH after active added” value in data set [1] was 4.74. For the same compound, the “Preventative activity on the growth of B. cinerea” value in the data set with Botrytis cinerea [2] was “No obvious effect”. In the data set with Erwinia carotovora [3], the “Preventative activity on the growth of E. carotovora” value is recorded as “No obvious effect”. Also, the “Curative activity on the growth of B. cinerea” value is listed as “No effect” in the data set with Botrytis cinerea [4] (Example 4, pH 4.0) and “No obvious effect” in the data set on Botrytis cinerea [4] (setting [11]). Moreover, the “Curative activity on the growth of E. carotovora” value in the data set with Erwinia carotovora [5] (Example 4, pH 4.0) was “No effect”; in the data set with Erwinia carotovora [5] (setting [11]) it was “No obvious effect”.
